{"source": "patent US6420558B1", "about": "“Aminopiperidine derivates as integrin αvβ3 antagonists” (Meiji Seika Kaisha, Ltd., priority 1998, dated 2002)", "biological_target": "T1, integrin αvβ3 (vitronectin receptor purified from the human placenta) (Homo sapiens, UniProt P05106+P06756)", "T1 construct": "a vitronectin receptor (protein content: 118 μg/ml) purified from the human placenta; from tissue; host or cells: human placenta", "T1 sequence (P06756 31-889 limits assumed)": "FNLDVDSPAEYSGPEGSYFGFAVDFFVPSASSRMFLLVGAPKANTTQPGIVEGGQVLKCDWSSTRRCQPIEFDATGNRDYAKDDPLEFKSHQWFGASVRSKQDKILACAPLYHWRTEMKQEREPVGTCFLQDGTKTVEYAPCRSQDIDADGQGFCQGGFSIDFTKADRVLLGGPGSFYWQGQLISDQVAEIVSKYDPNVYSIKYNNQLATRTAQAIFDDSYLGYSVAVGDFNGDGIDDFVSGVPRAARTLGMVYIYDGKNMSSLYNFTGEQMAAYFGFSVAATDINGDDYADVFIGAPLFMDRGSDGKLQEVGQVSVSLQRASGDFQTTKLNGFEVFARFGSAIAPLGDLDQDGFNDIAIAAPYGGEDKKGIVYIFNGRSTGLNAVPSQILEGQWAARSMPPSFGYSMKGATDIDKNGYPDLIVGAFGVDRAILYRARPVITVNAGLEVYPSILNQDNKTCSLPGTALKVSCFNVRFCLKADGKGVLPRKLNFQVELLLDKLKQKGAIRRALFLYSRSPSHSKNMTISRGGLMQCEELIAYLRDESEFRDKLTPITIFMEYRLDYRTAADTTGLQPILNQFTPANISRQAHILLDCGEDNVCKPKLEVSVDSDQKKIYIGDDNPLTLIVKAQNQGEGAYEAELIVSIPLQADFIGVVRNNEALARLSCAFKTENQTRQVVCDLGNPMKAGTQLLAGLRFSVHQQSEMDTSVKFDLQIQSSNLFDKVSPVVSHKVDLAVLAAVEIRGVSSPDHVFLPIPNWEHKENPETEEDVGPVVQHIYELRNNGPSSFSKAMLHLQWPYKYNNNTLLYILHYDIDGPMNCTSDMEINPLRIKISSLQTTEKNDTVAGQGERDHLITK", "T1 sequence (P06756 891-1048 limits assumed)": "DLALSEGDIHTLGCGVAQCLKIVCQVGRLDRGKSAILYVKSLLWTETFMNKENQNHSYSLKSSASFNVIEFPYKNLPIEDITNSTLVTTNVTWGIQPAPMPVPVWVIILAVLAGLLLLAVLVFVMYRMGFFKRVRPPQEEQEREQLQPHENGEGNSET", "T1 sequence (P05106 27-788)": "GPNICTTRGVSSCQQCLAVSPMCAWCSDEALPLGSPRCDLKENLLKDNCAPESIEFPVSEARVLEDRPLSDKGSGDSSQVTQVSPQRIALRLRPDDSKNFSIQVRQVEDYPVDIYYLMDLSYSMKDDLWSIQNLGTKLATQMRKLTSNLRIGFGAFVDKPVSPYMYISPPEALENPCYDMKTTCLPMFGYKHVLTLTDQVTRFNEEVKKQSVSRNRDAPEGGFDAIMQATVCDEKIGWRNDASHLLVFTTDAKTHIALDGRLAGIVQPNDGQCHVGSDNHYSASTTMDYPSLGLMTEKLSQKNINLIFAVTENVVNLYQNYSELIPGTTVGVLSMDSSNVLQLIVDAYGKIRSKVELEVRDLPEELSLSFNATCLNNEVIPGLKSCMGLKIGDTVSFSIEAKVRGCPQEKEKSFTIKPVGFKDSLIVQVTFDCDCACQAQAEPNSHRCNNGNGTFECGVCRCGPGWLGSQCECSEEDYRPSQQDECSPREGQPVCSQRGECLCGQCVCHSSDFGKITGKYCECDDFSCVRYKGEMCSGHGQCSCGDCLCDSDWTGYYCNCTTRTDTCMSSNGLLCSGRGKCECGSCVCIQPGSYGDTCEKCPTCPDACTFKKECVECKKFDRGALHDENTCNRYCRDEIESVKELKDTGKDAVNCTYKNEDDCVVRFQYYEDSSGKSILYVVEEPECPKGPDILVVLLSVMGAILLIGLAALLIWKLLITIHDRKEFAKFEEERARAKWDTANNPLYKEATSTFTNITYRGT", "assay": "αvβ3 binding assay (vitronectin-vitronectin receptor binding assay)", "conditions": "vitronectin binding to human placenta vitronectin receptor; read-out: integrin αvβ3 antagonistic activity, IC50 value"}
{"smiles": "O=C(NC[C@H](NS(=O)(=O)c1ccccc1)C(=O)O)c1ccc(N2CCC(NC3=NCCCN3)CC2)c(F)c1", "note": "[Example 52, (2S)-Benzenesulfonylamino-3-[3-fluoro-4-{4-(1,4,5,6-tetrahydropyrimidin-2-ylamino)piperidin-1-yl}-benzoylamino]propionic acid]", "values": [{"measurement": "IC50", "value": "≤ 1", "unit": "nM"}]}
